The results in this text go back to patent US20250034097A1, “MICROBIOCIDAL ISONICOTINIC AMIDE DERIVATIVES” (SYNGENTA CROP PROTECTION AG, priority 2021, published 2025).

One test deals with Glomerella lagenarium. In words: Glomerella lagenarium syn Colletotrichum lagenarium (anthracnose), growth inhibition in nutrient broth. It counts as cell-based. As to conditions: Colletotrichum orbiculare, PDB broth, 24° C., 72 hours, photometric at 620 nm, compared to untreated control. On the procedure:
(§1) Conidia of the fungus from cryogenic storage were directly mixed into nutrient broth (PDB potato dextrose broth). A DMSO solution of the test compounds was placed into a microtiter plate (96-well format) and the nutrient broth containing the fungal spores was added to it. The test plates were incubated at 24° C. and the inhibition of growth was determined photometrically after 72 hours at 620 nm.

The subject of a further test is Pyrenophora teres. In words: Pyrenophora teres (net blotch of barley), barley leaf segments, preventive. In kind it is in vivo. As to conditions: 200 ppm, assessed 4 dpi, compared to untreated control. The procedure: Barley leaf segments are placed on agar in multiwell plates (24-well format) and sprayed with test solutions. After drying, the leaf disks are inoculated with a spore suspension of the fungus. After appropriate incubation, the activity of a compound is assessed 4 dpi (days after inoculation) as preventive fungicidal activity.

In the next test the test system is Sclerotinia sclerotiorum. In words: Sclerotinia sclerotiorum (cottony rot, white mold), growth inhibition in nutrient broth. It counts as cell-based. As to conditions: 20 ppm; PDB broth, 24° C., 72 hours, photometric at 620 nm; compared to untreated control. On the procedure:
Mycelial fragments of the fungus prepared from a fresh liquid culture were directly mixed into nutrient broth (PDB potato dextrose broth). A DMSO solution of the test compounds was placed into a microtiter plate (96-well format) and the nutrient broth containing the fungal spores was added to it. The test plates were incubated at 24° C. and the inhibition of growth was determined photometrically after 72 hours at 620 nm.

A further test relates to Alternaria solani. In words: Alternaria solani (early blight of tomato), tomato leaf disks, preventive. In kind it is in vivo. As to conditions: 200 ppm, assessed 4 dpi, compared to untreated control. On the procedure: Alternaria solani (Early Blight of Tomato) Tomato leaf disks are placed on water agar in multiwell plates (24-well format) and sprayed with test solutions. After drying, the leaf disks are inoculated with a spore suspension of the fungus. After appropriate incubation the activity of a compound is assessed 4 dpi (days post inoculation) as preventive fungicidal activity.

A further test relates to Monographella nivalis. In words: Monographella nivalis syn. Microdochium nivale (snow mould, foot rot), growth inhibition in nutrient broth. As to conditions: "at ppm" (concentration not given); PDB broth, 24° C., 72 hours, photometric at 620 nm; compared to untreated control. It counts as cell-based. The procedure: as §1

Molecules are shown by their SMILES.

With `C=C(C)c1nncc(Oc2cccc(C3CC3)c2)c1C(=O)NCC(F)c1ccc(Cl)cc1Cl` (centres unmarked) [Compound 2.7, 5-(3-cyclopropylphenoxy)-N-[2-(2,4-dichlorophenyl)-2-fluoro-ethyl]-3-isopropenyl-pyridazine-4-carboxamide], the inhibition of growth (commonly the share of the control response that was lost under treatment) at 20 ppm in the test on Glomerella lagenarium is at least 80%.

For `CC(C)c1nncc(Oc2cccc(C3CC3)c2)c1C(=O)NCC(F)c1ccc(Cl)cc1Cl` (centres unmarked) [Compound 2.9, 5-(3-cyclopropylphenoxy)-N-[2-(2,4-dichlorophenyl)-2-fluoro-ethyl]-3-isopropyl-pyridazine-4-carboxamide], the inhibition of growth at 20 ppm in the test with Glomerella lagenarium is at least 80%.

In the test with Glomerella lagenarium, `CC(C)Oc1nncc(Oc2cccc(C3CC3)c2)c1C(=O)NCC(F)c1ccc(Cl)cc1Cl` (centres unmarked) [Compound 2.4, 5-(3-cyclopropylphenoxy)-N-[2-(2,4-dichlorophenyl)-2-fluoro-ethyl]-3-isopropoxy-pyridazine-4-carboxamide] came in with an inhibition of growth at 20 ppm of at least 80%.

In the test with Glomerella lagenarium, `O=C(NCC(F)c1ccc(Cl)cc1Cl)c1c(Oc2cccc(C3CC3)c2)cnnc1O` (centres unmarked) [Compound 2.15, 5-(3-cyclopropylphenoxy)-N-[2-(2,4-dichlorophenyl)-2-fluoro-ethyl]-3-hydroxy-pyridazine-4-carboxamide] yielded an inhibition of growth at 20 ppm of at least 80%.

Regarding `Cc1ncc(Oc2cccc(C3CC3)c2)c(C(=O)NCCc2ccc(Cl)cc2Cl)n1` [Compound 1.1, 5-(3-cyclopropylphenoxy)-N-[2-(2,4-dichlorophenyl)ethyl]-2-methyl-pyrimidine-4-carboxamide], the inhibition of growth at 20 ppm in the test with Glomerella lagenarium was at least 80%.

In the test on Glomerella lagenarium, `COc1nncc(Oc2cccc(C3CC3)c2)c1C(=O)NCCc1ccc(Cl)cc1Cl` [Compound 2.12, 5-(3-cyclopropylphenoxy)-N-[2-(2,4-dichlorophenyl)ethyl]-3-methoxy-pyridazine-4-carboxamide] returned an inhibition of growth at 20 ppm of at least 80%.

Take `CC(C)c1nncc(Oc2cccc(C3CC3)c2)c1C(=O)NC[C@H](F)c1ccc(Cl)cc1Cl` [Compound 2.16, 5-(3-cyclopropylphenoxy)-N-[(2R)-2-(2,4-dichlorophenyl)-2-fluoro-ethyl]-3-isopropyl-pyridazine-4-carboxamide]: the inhibition of growth at 20 ppm with Glomerella lagenarium was at least 80%.

Turning to `Cc1ncc(Oc2cccc(C3CC3)c2)c(C(=O)NCC(F)c2ccc(Cl)cc2Cl)n1` (centres unmarked) [Compound 1.2, 5-(3-cyclopropylphenoxy)-N-[2-(2,4-dichlorophenyl)-2-fluoro-ethyl]-2-methyl-pyrimidine-4-carboxamide], the inhibition of growth at 20 ppm in the test on Glomerella lagenarium is at least 80%. Besides, in the test with Pyrenophora teres, the “control of Pyrenophora teres” value was “at least 80%”. Moreover, the “control of Sclerotinia sclerotiorum” value in the test with Sclerotinia sclerotiorum was “at least 80%”. In addition, the “control of Alternaria solani” value in the test with Alternaria solani is recorded as “at least 80%”. Moreover, the “control of Monographella nivalis” value in the test with Monographella nivalis is listed as “at least 80%”.

Turning to `O=C(NCC(F)c1ccc(Cl)cc1Cl)c1c(Oc2cccc(C3CC3)c2)cnnc1C1CC1` (centres unmarked) [Compound 2.8, 3-cyclopropyl-5-(3-cyclopropylphenoxy)-N-[2-(2,4-dichlorophenyl)-2-fluoro-ethyl]pyridazine-4-carboxamide], the inhibition of growth at 20 ppm in the test on Glomerella lagenarium is at least 80%.

In the test on Glomerella lagenarium, `C=C(C)COc1nncc(Oc2cccc(C3CC3)c2)c1C(=O)NCC(F)c1ccc(Cl)cc1Cl` (centres unmarked) [Compound 2.5, 5-(3-cyclopropylphenoxy)-N-[2-(2,4-dichlorophenyl)-2-fluoro-ethyl]-3-(2-methylallyloxy)pyridazine-4-carboxamide] showed an inhibition of growth at 20 ppm of at least 80%.

For `O=C(NCC(F)c1ccc(Cl)cc1Cl)c1c(Oc2cccc(C3CC3)c2)cnnc1C#CC1CC1` (centres unmarked) [Compound 2.6, 3-(2-cyclopropylethynyl)-5-(3-cyclopropylphenoxy)-N-[2-(2,4-dichlorophenyl)-2-fluoro-ethyl]pyridazine-4-carboxamide], the inhibition of growth at 20 ppm in the test with Glomerella lagenarium was at least 80%.

In turn, `O=C(NCC(F)c1ccc(Cl)cc1Cl)c1cnncc1Oc1cccc(C2CC2)c1` (centres unmarked) [Compound 2.10, 5-(3-cyclopropylphenoxy)-N-[2-(2,4-dichlorophenyl)-2-fluoro-ethyl]pyridazine-4-carboxamide] had an inhibition of growth at 20 ppm in the test on Glomerella lagenarium of at least 80%.

`Cc1nncc(Oc2cccc(C3CC3)c2)c1C(=O)NCC(F)c1ccc(Cl)cc1Cl` (centres unmarked) [Compound 2.1, 5-(3-cyclopropylphenoxy)-N-[2-(2,4-dichlorophenyl)-2-fluoro-ethyl]-3-methyl-pyridazine-4-carboxamide] showed an inhibition of growth at 20 ppm in the test on Glomerella lagenarium of at least 80%.
